Assay results from publication PMC6172315, “Relative Selectivity of Plant Cardenolides for Na^+/K^+-ATPases From the Monarch Butterfly and Non-resistant Insects” (Frontiers in Plant Science, 2018).
“Also recorded” adds a separate entry of the source. Read-outs that look alike come from different tables or passages of the source.

How the values were obtained:
[1] = biological target: S. gregaria-Na^+/K^+-ATPase (Schistocerca gregaria, UniProt A0A8E5JSN5); type: biochemical
Protocol: (§1) Danaus plexippus was caught in the field or purchased; E. core and S. gregaria were obtained commercially, with additional E. core from a laboratory colony. […] Briefly, brains dissected from butterflies stored at -80°C or recta from locusts were homogenized (individually or pooled) with an all glass grinder (Wheaton) in deionized water, frozen at -80°C, freeze-dried, and stored frozen until use. For in vitro assays, lyophilisates were dissolved in water, sonicated in an ultrasonic bath, and centrifuged to remove undissolved matter. All cardiac glycosides were tested at least with three biological replicates of Na^+/K^+-ATPase (i.e., Na^+/K^+-ATPase from genetically different specimens or pools of specimens).
(§2) Means of duplicate determinations (i.e., technical replicates) were used as data points. In consequence, each data point of a dose–response curve is the mean of at least three biological replicates based on two technical replicates, each. […] Here, technical replicates collected on the same 96-well plate were averaged and used as data points.
(§3) Stock solutions of cardiac glycosides, as well as pregnane glycosides, were prepared from crystalline compounds in DMSO. While concentrations of all other compounds were based on mass, calactin, and calotropin stock solutions were adjusted with HPLC using digitoxin as a reference.
(§4) Pairwise statistical comparisons of dose-response curves were carried out using the “compare datasets” option in OriginPro, which is based on an F-Test evaluating if the two curves are identical. Correlation analyses using log10-transformed IC50 values was also carried out with OriginPro. […] To analyze relative selectivity without a reference, we also plotted the fold differences between the IC50 values of individual cardenolides for non-adapted and adapted insect Na^+/K^+-ATPase and compared them to mammalian (lamb) Na^+/K^+-ATPase (Figure 2).

[2] = parameters: method as in Imai et al., 1965; details: ref Imai et al., 1965; cited from earlier work
[3] = biological target: E. core-Na^+/K^+-ATPase (Euploea core, UniProt A0A5C0C9F5); test: In vitro inhibition assay of E. core Na+/K+-ATPase (phosphate release); type: biochemical; details: for inhibition of E. core Na^+/K^+-ATPase compared to ouabain: EC, F-test comparison of entire dose-response curves with ouabain; for IC50: read-out: IC50 E. core- Na^+/K^+-ATPase, Na+/K+-ATPase extracted from butterfly brains
Chain of E. core-Na^+/K^+-ATPase (A0A5C0C9F5 1-1013): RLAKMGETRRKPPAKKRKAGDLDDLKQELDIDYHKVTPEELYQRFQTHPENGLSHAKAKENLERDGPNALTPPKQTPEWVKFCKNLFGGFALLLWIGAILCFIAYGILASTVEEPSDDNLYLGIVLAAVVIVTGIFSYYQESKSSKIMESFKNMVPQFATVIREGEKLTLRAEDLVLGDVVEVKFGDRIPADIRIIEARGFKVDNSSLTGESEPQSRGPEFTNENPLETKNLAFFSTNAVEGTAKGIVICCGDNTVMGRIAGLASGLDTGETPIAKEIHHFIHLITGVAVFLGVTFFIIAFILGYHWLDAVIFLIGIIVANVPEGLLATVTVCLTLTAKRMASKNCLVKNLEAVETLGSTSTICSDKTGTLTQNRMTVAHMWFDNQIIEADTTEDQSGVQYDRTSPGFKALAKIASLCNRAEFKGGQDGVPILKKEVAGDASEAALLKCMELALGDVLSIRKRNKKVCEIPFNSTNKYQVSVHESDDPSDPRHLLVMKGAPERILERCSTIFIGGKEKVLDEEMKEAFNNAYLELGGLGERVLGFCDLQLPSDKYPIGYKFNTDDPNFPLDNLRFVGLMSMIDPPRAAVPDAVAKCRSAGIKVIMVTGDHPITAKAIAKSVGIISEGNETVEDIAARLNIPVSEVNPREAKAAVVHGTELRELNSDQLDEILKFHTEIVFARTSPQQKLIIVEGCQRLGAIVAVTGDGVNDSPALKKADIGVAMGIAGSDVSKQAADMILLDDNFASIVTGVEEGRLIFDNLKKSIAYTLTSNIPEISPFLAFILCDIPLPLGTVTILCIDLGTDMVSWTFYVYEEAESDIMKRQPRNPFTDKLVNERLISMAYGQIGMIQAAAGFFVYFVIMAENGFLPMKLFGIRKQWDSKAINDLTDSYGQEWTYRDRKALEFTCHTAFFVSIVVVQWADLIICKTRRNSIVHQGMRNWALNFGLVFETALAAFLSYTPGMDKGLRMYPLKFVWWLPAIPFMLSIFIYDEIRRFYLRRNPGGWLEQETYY
Protocol: as §1, §2, §3, §4

[4] = biological target: D. plexippus-Na^+/K^+-ATPase (Danaus plexippus, UniProt K0G7C4); test: In vitro inhibition assay of D. plexippus Na+/K+-ATPase (phosphate release); type: biochemical; details: for inhibition of D. plexippus Na^+/K^+-ATPase compared to ouabain: DP, F-test comparison of entire dose-response curves with ouabain; for fold difference between IC50 values, non-adapted (E. core/S. gregaria) vs adapted (D. plexippus) insect Na^+/K^+-ATPase: Figure 2, last number, S. gregaria values used for ouabain and digitoxigenin; for IC50: read-out: IC50 D. plexippus- Na^+/K^+-ATPase, Na+/K+-ATPase extracted from butterfly brains
Chain of D. plexippus-Na^+/K^+-ATPase (K0G7C4 1-1009): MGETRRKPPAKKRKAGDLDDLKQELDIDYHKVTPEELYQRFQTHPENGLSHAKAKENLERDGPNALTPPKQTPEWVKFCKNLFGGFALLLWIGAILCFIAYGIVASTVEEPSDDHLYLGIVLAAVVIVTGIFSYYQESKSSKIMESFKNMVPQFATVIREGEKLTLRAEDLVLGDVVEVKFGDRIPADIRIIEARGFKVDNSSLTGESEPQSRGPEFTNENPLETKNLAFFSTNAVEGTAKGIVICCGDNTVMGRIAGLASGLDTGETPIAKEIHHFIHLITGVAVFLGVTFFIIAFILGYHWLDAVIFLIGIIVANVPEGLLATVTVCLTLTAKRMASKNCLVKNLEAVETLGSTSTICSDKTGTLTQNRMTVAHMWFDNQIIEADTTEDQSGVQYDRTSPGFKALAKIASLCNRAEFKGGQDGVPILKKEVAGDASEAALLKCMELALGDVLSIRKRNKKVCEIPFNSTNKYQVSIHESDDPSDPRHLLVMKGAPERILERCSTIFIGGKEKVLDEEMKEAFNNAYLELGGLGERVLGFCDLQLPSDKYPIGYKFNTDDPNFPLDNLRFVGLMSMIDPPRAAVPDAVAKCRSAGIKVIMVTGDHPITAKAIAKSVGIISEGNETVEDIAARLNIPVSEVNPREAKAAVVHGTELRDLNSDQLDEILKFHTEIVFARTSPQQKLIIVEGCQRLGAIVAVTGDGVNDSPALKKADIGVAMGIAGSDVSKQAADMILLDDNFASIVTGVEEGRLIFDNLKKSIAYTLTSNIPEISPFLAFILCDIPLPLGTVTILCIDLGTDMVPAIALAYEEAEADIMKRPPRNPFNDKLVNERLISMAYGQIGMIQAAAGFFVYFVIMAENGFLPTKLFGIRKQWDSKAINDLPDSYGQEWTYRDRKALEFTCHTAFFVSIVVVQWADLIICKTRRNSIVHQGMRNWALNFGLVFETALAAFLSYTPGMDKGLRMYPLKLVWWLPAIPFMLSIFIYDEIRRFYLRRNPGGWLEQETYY
Protocol: as §1, §2, §3, §4

[5] = tested on: porcine Na^+/K^+-ATPase; test: In vitro inhibition assay of porcine Na+/K+-ATPase; type: biochemical, pig; details: for inhibition of porcine Na^+/K^+-ATPase compared to ouabain: F-test comparison of dose-response curves with ouabain; for IC50: purified from pig brain, 0.01 U/ml in the assay
Protocol: Lyophilized Na^+/K^+-ATPase was dissolved in water to a concentration of 1 U/ml, stored at -80°C in single-use aliquots and diluted with H2O to 0.05 U/ml for use in the in vitro assay (final concentration in the assay 0.01 U/ml).
as §4

[6] = tested on: lamb Na^+/K^+-ATPase; test: Fold differences of IC50 between lamb and insect Na+/K+-ATPases; type: biochemical; details: lamb IC50 inferred from ref Paula et al., 2005; for fold difference between IC50 values, lamb vs adapted insect (D. plexippus) Na^+/K^+-ATPase: Figure 2, first number; for fold difference between IC50 values, lamb vs non-adapted insect (E. core/S. gregaria) Na^+/K^+-ATPase: Figure 2, second number
Protocol: as §4

[7] = physchem; details: for solubility: aqueous with cosolvent or surfactant or cyclodextrin, kinetic from dmso stock
Protocol: as §3

[8] = Na+/K+-ATPase extracted from locust recta; read-out: IC50 S. gregaria- Na^+/K^+-ATPase
[9] = SG; F-test comparison of entire dose-response curves with ouabain
[10] = read-out: IC50 S. gregaria- Na^+/K^+-ATPase; Na+/K+-ATPase extracted from locust recta
[11] = both dissolved in 25% DMSO, F-test of curves

Chain of S. gregaria-Na^+/K^+-ATPase (A0A8E5JSN5 1-1039): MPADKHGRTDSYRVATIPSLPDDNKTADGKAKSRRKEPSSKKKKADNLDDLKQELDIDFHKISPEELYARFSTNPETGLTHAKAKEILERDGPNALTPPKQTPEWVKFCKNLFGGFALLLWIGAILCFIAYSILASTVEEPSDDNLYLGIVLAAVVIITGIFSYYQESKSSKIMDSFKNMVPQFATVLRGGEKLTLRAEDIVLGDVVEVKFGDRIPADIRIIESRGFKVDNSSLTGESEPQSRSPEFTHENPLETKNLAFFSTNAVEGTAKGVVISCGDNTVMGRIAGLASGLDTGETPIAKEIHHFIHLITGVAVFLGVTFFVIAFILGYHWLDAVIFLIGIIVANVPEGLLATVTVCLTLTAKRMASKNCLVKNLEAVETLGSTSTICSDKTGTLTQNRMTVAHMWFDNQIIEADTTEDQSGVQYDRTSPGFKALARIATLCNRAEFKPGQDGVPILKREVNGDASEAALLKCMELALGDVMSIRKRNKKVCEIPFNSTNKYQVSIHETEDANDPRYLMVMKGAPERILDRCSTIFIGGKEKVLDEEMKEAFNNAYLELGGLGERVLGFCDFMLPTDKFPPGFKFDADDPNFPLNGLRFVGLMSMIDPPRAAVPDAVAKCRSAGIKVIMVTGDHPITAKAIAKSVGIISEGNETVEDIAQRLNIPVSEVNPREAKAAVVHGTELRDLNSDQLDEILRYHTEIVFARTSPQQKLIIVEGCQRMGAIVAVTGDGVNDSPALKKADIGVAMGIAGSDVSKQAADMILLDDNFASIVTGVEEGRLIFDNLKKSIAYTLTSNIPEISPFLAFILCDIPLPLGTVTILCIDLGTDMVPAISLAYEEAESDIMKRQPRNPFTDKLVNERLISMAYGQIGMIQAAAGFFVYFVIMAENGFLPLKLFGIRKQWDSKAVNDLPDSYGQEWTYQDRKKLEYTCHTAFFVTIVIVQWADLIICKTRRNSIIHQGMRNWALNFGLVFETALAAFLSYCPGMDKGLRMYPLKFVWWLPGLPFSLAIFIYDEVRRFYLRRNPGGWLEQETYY

| Compound | inhibition of E. core Na^+/K^+-ATPase compared to ouabain [3] | IC50 [3] | inhibition of D. plexippus Na^+/K^+-ATPase compared to ouabain [4] | fold difference between IC50 values, non-adapted (E. core/S. gregaria) vs adapted (D. plexippus) insect Na^+/K^+-ATPase [4] | IC50 [4] | IC50 [5] | IC50 [1, 8] | inhibition of S. gregaria Na^+/K^+-ATPase compared to ouabain [1, 9] | fold difference between IC50 values, lamb vs adapted insect (D. plexippus) Na^+/K^+-ATPase [6] | fold difference between IC50 values, lamb vs non-adapted insect (E. core/S. gregaria) Na^+/K^+-ATPase [6] | further results |
| --- | --- | --- | --- | --- | --- | --- | --- | --- | --- | --- | --- |
| CO[C@@H]1C[C@H](O[C@H]2CC[C@@]3(C)[C@H](CC[C@@]45O[C@@]46CC[C@H](C4=CC(=O)OC4)[C@@]6(C)CC[C@H]35)C2)O[C@H](C)[C@@H]1O [adynerin] | – | – | – | – | – | – | – | – | – | – | inhibition of S. gregaria-Na^+/K^+-ATPase (in words) ([1]; Supplementary Figure 2): lack of inhibition; also recorded: failed to inhibit; cardiotonic activity in vertebrates [2]: lack cardiotonic activity |
| C[C@]12CC[C@H](O[C@@H]3O[C@H](CO)[C@@H](O)[C@H](O)[C@H]3O)C[C@@H]1CC[C@@H]1[C@@H]2CC[C@]2(C)[C@@H](C3=CC(=O)OC3)CC[C@]12O [desglucouzarin] | nearly the same inhibitory effect as ouabain | 0.62 µM | strongly inhibitory effect; also recorded: > ouabain; F2,7 = 455.90, p < 0.001 | 10 x | 6.42 µM | 0.268 µM | – | – | – | – | inhibition of porcine Na^+/K^+-ATPase compared to ouabain [5]: more strongly than ouabain |
| C[C@]12CC[C@H](O)C[C@H]1CC[C@@H]1[C@@H]2CC[C@]2(C)[C@@H](C3=CC(=O)OC3)[C@@H](O)C[C@]12O [gitoxigenin] | – | – | – | 7 x | 256 µM | – | 37.8 µM | much lower extent compared to ouabain | 1633 x | 241 x | – |
| CC(=O)O[C@H]1C[C@H](O[C@H]2[C@@H](O)C[C@H](O[C@H]3[C@@H](O)C[C@H](O[C@H]4CC[C@@]5(C)[C@H](CC[C@@H]6[C@@H]5C[C@@H](O)[C@]5(C)[C@@H](C7=CC(=O)OC7)CC[C@]65O)C4)O[C@@H]3C)O[C@@H]2C)O[C@H](C)[C@H]1O[C@@H]1O[C@H](CO)[C@@H](O)[C@H](O)[C@H]1O [lanatoside C, reference compound] | – | – | < ouabain; F2,6 = 17.23, p = 0.003 | 52 x | 644 µM | – | 12.4 µM | < ouabain; F2,6 = 82.96, p < 0.001 | 1564 x | 30 x | – |
| CO[C@H]1C[C@H](O[C@H]2CC[C@@]3(C)[C@H](CC[C@@H]4[C@@H]3CC[C@]3(C)[C@@H](C5=CC(=O)OC5)[C@@H](OC(C)=O)C[C@]43O)C2)O[C@@H](C)[C@@H]1O [oleandrin] | – | – | > ouabain; F2,6 = 252.64, p < 0.001 | – | 3.68 µM | – | – | = ouabain; F2,6 = 2.24, p = 0.19 | – | – | IC50 [1, 10]: 0.834 µM; solubility [7]: < 100 µM |
| CC12CC(O)C3C(CCC4(O)CC(O)CC(O)C34CO)C1(O)CCC2C1=CC(=O)OC1 (centres unmarked) [ouabagenin] | – | – | < ouabain; F2,6 = 80.0, p < 0.001 | 41 x | 841 µM | – | 20.4 µM | < ouabain; F2,6 = 201.2, p < 0.001 | 1821 x | 44 x | – |
| C[C@@H]1O[C@@H](O[C@H]2C[C@@H](O)[C@]3(CO)[C@H]4[C@H](O)C[C@]5(C)[C@@H](C6=CC(=O)OC6)CC[C@]5(O)[C@@H]4CC[C@]3(O)C2)[C@H](O)[C@H](O)[C@H]1O [ouabain, reference compound] | – | 1.03 µM | – | – | 94 µM | 0.486 µM | – | – | – | – | IC50 [1, 10]: 0.997 µM |
| CC12CCC(O)CC1CCC1C2CCC2(C)C(C3=CC(=O)OC3)CCC12O (centres unmarked) [uzarigenin] | < ouabain; F2,6 = 53.30, p < 0.001 | 4.58 µM | > ouabain; F2,6 = 5.73, p = 0.04 | – | 16 µM | – | – | – | – | – | inhibition of E. core Na^+/K^+-ATPase compared to 5β equivalent digitoxigenin [3, 11]: no difference; inhibition of D. plexippus Na^+/K^+-ATPase compared to 5β equivalent digitoxigenin [4, 11]: no difference; solubility compared to 5-β-isomer digitoxigenin ([7]; ambient conditions): at least three to four times lower; also recorded: strongly reduced; solubility [7]: < 100 µM |
| C[C@]12CC[C@H](O[C@@H]3O[C@H](CO[C@@H]4O[C@H](CO)[C@@H](O)[C@H](O)[C@H]4O)[C@@H](O)[C@H](O)[C@H]3O)C[C@@H]1CC[C@@H]1[C@@H]2CC[C@]2(C)[C@@H](C3=CC(=O)OC3)CC[C@]12O [uzarin] | far weaker inhibition than ouabain; also recorded: < ouabain; F2,7 = 39.97, p < 0.001 | 2.91 µM | substantially stronger inhibition than ouabain; also recorded: > ouabain; F2,7 = 70.04, p < 0.001 | 6 x | 18.8 µM | 0.452 µM | – | – | – | – | inhibition of porcine Na^+/K^+-ATPase compared to ouabain [5]: not different from the effect of ouabain |
